Results: patent US10618918B2, “Substituted boronic acids as antimicrobials” (priority 2015, dated 2020)
Like-named read-outs stand apart in the source and are kept apart here.

Key:
[1] = tested on: KP1086 OXA-48; test: Biapenem potentiation (MPC@1), strain KP1086 OXA-48; assay type: cell-based; settings: minimum BLI concentration inhibiting growth with biapenem 1 μg/mL; tested up to 40 μg/mL
Method: (§1) Biapenem was present in the test medium at 1 μg/mL. […] Table 3 summarizes the BLI potency of biapenem potentiation (MPC@1) for two strains overexpressing class A (KPC) and class D (OXA-48) carbapenemases. Biapenem MIC for each strain is also shown.

[2] = tested on: EC1010 CMY-6; test: Aztreonam potentiation (MPC@4), strain EC1010 CMY-6; settings: minimum BLI concentration inhibiting growth with aztreonam 4 μg/mL; tested up to 40 μg/mL
[3] = tested on: KP1009 CTX-M-15; test: Aztreonam potentiation (MPC@4), strain KP1009 CTX-M-15; settings: minimum BLI concentration inhibiting growth with aztreonam 4 μg/mL; tested up to 40 μg/mL
[4] = tested on: KP1005 CTX-M-14; test: Tigemonam potentiation (MPC@4), strain KP1005 CTX-M-14; settings: minimum BLI concentration inhibiting growth with tigemonam 4 μg/mL; tested up to 40 μg/mL
[5] = tested on: ECL1002; test: Aztreonam potentiation (MPC@4), strain ECL1002; settings: minimum BLI concentration inhibiting growth with aztreonam 4 μg/mL; tested up to 40 μg/mL
[6] = molecular target: purified class A, C and D enzymes (β-lactamases) (Klebsiella pneumoniae, UniProt Q9F663); test: biochemical; assay type: biochemical; settings: purified KPC-2; nitrocefin (NCF) as reporter substrate
[7] = molecular target: purified class A, C and D enzymes (β-lactamases) (Klebsiella pneumoniae, UniProt Q6XEC0); test: biochemical; assay type: biochemical; settings: purified OXA-48; nitrocefin (NCF) as reporter substrate
[8] = molecular target: purified class A, C and D enzymes (β-lactamases) (Escherichia coli, UniProt Q9L5C7); test: biochemical; assay type: biochemical; settings: purified CTX-M-14; nitrocefin (NCF) as reporter substrate
[9] = molecular target: T1, purified class A, C and D enzymes (β-lactamases) (Acinetobacter baumannii, UniProt Q9L4P2); test: biochemical; assay type: biochemical; settings: purified OXA-23; nitrocefin (NCF) as reporter substrate
T1 construct: rows headed: Ki (OXA-23, NCF), uM; other: purified OXA-23; nitrocefin (NCF) as reporter substrate

[10] = molecular target: T2, purified class A, C and D enzymes (β-lactamases) (Pseudomonas aeruginosa, UniProt P24735); test: biochemical; assay type: biochemical
T2 construct: rows headed: Ki (Pa-AmpC, NCF), uM; other: purified Pa-AmpC; nitrocefin (NCF) as reporter substrate

[11] = molecular target: purified class A, C and D enzymes (β-lactamases) (Enterobacter cloacae, UniProt P05364); test: biochemical; assay type: biochemical
[12] = tested on: KP1010 SHV-12; test: Aztreonam potentiation (MPC@4), strain KP1010 SHV-12; settings: minimum BLI concentration inhibiting growth with aztreonam 4 μg/mL; tested up to 40 μg/mL
[13] = tested on: KP1004 KPC-2; test: Biapenem potentiation (MPC@1), strain KP1004 KPC-2; assay type: cell-based; settings: minimum BLI concentration inhibiting growth with biapenem 1 μg/mL; tested up to 40 μg/mL
Method: as §1

[14] = tested on: ec308 SHV-5; test: Aztreonam potentiation (MPC@4), strain ec308 SHV-5; settings: minimum BLI concentration inhibiting growth with aztreonam 4 μg/mL; tested up to 40 μg/mL
[15] = tested on: ec302 TEM-10; test: Aztreonam potentiation (MPC@4), strain ec302 TEM-10; settings: minimum BLI concentration inhibiting growth with aztreonam 4 μg/mL; tested up to 40 μg/mL
[16] = tested on: KP1004 KPC-2; test: Aztreonam potentiation (MPC@4), strain KP1004 KPC-2; settings: minimum BLI concentration inhibiting growth with aztreonam 4 μg/mL; tested up to 40 μg/mL
[17] = tested on: AB1053 OXA-72; test: Meropenem potentiation (MPC@8), strain AB1053 OXA-72; assay type: cell-based, Acinetobacter baumannii; settings: minimum BLI concentration inhibiting growth with meropenem 8 μg/mL; tested up to 20 μg/mL
[18] = tested on: AB1054 OXA-23; test: Meropenem potentiation (MPC@8), strain AB1054 OXA-23; assay type: cell-based, Acinetobacter baumannii; settings: minimum BLI concentration inhibiting growth with meropenem 8 μg/mL; tested up to 20 μg/mL
[19] = purified Pa-AmpC, nitrocefin (NCF) as reporter substrate, read-out: Ki (Pa-AmpC, NCF)
[20] = purified P99, nitrocefin (NCF) as reporter substrate

purified class A, C and D enzymes (β-lactamases) (Enterobacter cloacae, UniProt P05364), sequence (P05364 21-381): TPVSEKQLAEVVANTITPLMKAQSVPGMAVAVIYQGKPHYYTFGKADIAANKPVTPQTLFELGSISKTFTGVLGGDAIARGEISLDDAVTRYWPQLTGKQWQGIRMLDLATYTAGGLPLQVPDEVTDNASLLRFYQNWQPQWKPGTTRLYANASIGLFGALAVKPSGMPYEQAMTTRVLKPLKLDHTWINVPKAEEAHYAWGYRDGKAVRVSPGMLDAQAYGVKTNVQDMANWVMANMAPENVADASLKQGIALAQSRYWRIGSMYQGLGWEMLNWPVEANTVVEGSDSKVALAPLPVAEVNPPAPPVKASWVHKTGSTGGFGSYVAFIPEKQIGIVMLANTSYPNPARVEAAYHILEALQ
T2 sequence (P24735 whole entry): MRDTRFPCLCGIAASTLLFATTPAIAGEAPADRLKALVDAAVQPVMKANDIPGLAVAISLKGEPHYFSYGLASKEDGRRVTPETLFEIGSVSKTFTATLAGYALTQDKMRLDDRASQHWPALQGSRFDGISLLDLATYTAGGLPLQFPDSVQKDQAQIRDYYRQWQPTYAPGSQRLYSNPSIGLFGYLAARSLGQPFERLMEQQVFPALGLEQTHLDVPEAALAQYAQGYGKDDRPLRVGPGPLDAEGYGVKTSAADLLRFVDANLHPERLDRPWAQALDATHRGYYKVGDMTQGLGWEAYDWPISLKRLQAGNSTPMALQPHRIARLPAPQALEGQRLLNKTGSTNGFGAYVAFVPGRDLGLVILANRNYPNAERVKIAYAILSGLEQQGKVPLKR
T1 sequence (Q9L4P2 whole entry): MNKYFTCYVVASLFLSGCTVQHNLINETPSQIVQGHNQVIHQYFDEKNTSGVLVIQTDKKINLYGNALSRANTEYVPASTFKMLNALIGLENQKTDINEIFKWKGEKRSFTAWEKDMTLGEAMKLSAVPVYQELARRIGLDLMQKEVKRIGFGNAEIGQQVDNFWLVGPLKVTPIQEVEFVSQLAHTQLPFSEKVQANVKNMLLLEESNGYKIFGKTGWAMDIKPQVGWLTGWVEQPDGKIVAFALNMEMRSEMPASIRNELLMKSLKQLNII
purified class A, C and D enzymes (β-lactamases) (Escherichia coli, UniProt Q9L5C7), sequence (Q9L5C7 entry or part of it): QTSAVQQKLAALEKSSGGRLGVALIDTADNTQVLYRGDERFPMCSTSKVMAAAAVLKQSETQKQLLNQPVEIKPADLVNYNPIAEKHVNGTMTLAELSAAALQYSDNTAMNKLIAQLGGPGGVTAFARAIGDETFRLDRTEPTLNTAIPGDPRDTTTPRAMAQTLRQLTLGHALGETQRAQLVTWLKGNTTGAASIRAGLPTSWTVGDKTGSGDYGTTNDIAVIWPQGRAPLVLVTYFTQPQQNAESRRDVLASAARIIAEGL

SMILES | BPM MPC1 OXA-48 KP1086 [1] | AZT MPC4 CMY-6 EC1010 [2] | AZT MPC4 CTX-M-15 KP1009 [3] | TIG MPC4 CTX-M-14 KP1005 [4] | AZT MPC4 ECL1002 [5] | Ki (KPC-2, NCF), uM [6] | Ki (OXA-48, NCF), uM [7] | Ki (CTX-M-14, NCF), uM [8] | Ki [9] | Ki [10] | Ki (P99, NCF), uM [11] | AZT MPC4 SHV-12 KP1010 [12] | BPM MPC1 KP1004 KPC-2 [13] | AZT MPC4 SHV-5 ec308 [14] | AZT MPC4 TEM-10 ec302 [15] | AZT MPC4 KPC-2 KP1004 [16] | MPM MPC8 AB1053 OXA-72 [17] | MPM MPC8 AB1054 OXA-23 [18] | Ki [10, 19] | Ki (P99, NCF), uM [11, 20]
O=C([O-])c1c(OCCN2CCOCC2)ccc2c1O[B-](O)(O)CC2.[Na+].[Na+] [Compound 27, Disodium; 4,4-dihydroxy-8-(2-morpholinoethoxy)-5-oxa-4-boranuidabicyclo[4.4.0]deca-1(6),7,9-triene-7-carboxylate] | Y (Y = 5 μg/mL < MPC@1 ≤ 20 μg/mL) | X (X = MPC@4 ≤ 5 μg/mL) | Y (Y = 5 μg/mL < MPC@4 ≤ 20 μg/mL) | Z (Z = MPC@4 > 20 μg/mL) | X (X = MPC@4 ≤ 5 μg/mL) | X (X = Ki ≤ 0.1 μM) | X (X = Ki ≤ 0.1 μM) | X (X = Ki ≤ 0.1 μM) | < 100 nM | 100 to 1000 nM | X (key: X = Ki ≤ 0.1 μM; Y = 0.1 μM < Ki ≤ 1 μM; Z = Ki > 1 μM) | X (X = MPC@4 ≤ 5 μg/mL) | X (X = MPC@1 ≤ 5 μg/mL) | Y (Y = 5 μg/mL < MPC@4 ≤ 20 μg/mL) | Y (Y = 5 μg/mL < MPC@4 ≤ 20 μg/mL) | X (X = MPC@4 ≤ 5 μg/mL) | Y (Y = 5 μg/mL < MPC@1 ≤ 20 μg/mL) | Y (Y = 5 μg/mL < MPC@1 ≤ 20 μg/mL) |  | 
O=C([O-])c1c(OCc2ccncc2)ccc2c1O[B-](O)(O)CC2.[Na+].[Na+] [Compound 28, Disodium; 4,4-dihydroxy-8-(4-pyridylmethoxy)-5-oxa-4-boranuidabicyclo[4.4.0]deca-1(6),7,9-triene-7-carboxylate] | X (X = MPC@1 ≤ 5 μg/mL) | X (X = MPC@4 ≤ 5 μg/mL) | Y (Y = 5 μg/mL < MPC@4 ≤ 20 μg/mL) | Z (Z = MPC@4 > 20 μg/mL) | Y (Y = 5 μg/mL < MPC@4 ≤ 20 μg/mL) | X (X = Ki ≤ 0.1 μM) | X (X = Ki ≤ 0.1 μM) | X (X = Ki ≤ 0.1 μM) | < 100 nM | < 100 nM | X (key: X = Ki ≤ 0.1 μM; Y = 0.1 μM < Ki ≤ 1 μM; Z = Ki > 1 μM) | X (X = MPC@4 ≤ 5 μg/mL) | X (X = MPC@1 ≤ 5 μg/mL) | Y (Y = 5 μg/mL < MPC@4 ≤ 20 μg/mL) | X (X = MPC@4 ≤ 5 μg/mL) | X (X = MPC@4 ≤ 5 μg/mL) | X (X = MPC@1 ≤ 5 μg/mL) | X (X = MPC@1 ≤ 5 μg/mL) |  | 
O=C([O-])c1c(OCC(F)F)ccc2c1O[B-](O)(O)CC2.[Na+].[Na+] [Compound 29, Disodium; 8-(2,2-difluoroethoxy)-4,4-dihydroxy-5-oxa-4-boranuidabicyclo[4.4.0]deca-1(6),7,9-triene-7-carboxylate] | X (X = MPC@1 ≤ 5 μg/mL) | X (X = MPC@4 ≤ 5 μg/mL) | Y (Y = 5 μg/mL < MPC@4 ≤ 20 μg/mL) | Y (Y = 5 μg/mL < MPC@4 ≤ 20 μg/mL) | X (X = MPC@4 ≤ 5 μg/mL) | X (X = Ki ≤ 0.1 μM) | X (X = Ki ≤ 0.1 μM) | X (X = Ki ≤ 0.1 μM) | < 100 nM | < 100 nM | X (key: X = Ki ≤ 0.1 μM; Y = 0.1 μM < Ki ≤ 1 μM; Z = Ki > 1 μM) | X (X = MPC@4 ≤ 5 μg/mL) | X (X = MPC@1 ≤ 5 μg/mL) | X (X = MPC@4 ≤ 5 μg/mL) | Y (Y = 5 μg/mL < MPC@4 ≤ 20 μg/mL) | X (X = MPC@4 ≤ 5 μg/mL) | X (X = MPC@1 ≤ 5 μg/mL) | Y (Y = 5 μg/mL < MPC@1 ≤ 20 μg/mL) |  | 
COc1ccc2c(c1P(=O)(O)O)OB(O)CC2 [Compound 33, (2-Hydroxy-7-methoxy-3,4-dihydro-1,2-benzoxaborinin-8-yl)phosphonic acid] | X (X = MPC@1 ≤ 5 μg/mL) | Y (Y = 5 μg/mL < MPC@4 ≤ 20 μg/mL) | Z (Z = MPC@4 > 20 μg/mL) | Z (Z = MPC@4 > 20 μg/mL) | Z (Z = MPC@4 > 20 μg/mL) | Z (Z = Ki > 1 μM) | X (X = Ki ≤ 0.1 μM) | X (X = Ki ≤ 0.1 μM) | < 100 nM |  |  | Z (Z = MPC@4 > 20 μg/mL) | X (X = MPC@1 ≤ 5 μg/mL) | Z (Z = MPC@4 > 20 μg/mL) | Z (Z = MPC@4 > 20 μg/mL) | Z (Z = MPC@4 > 20 μg/mL) | Y (Y = 5 μg/mL < MPC@1 ≤ 20 μg/mL) | Y (Y = 5 μg/mL < MPC@1 ≤ 20 μg/mL) | > 1000 nM | Y (Y = 0.1 μM < Ki ≤ 1 μM)
COc1c(F)cc2c(c1C(=O)O)OB(O)CC2 [Compound 34, 6-Fluoro-2-hydroxy-7-methoxy-3,4-dihydro-1,2-benzoxaborinine-8-carboxylic acid] | X (X = MPC@1 ≤ 5 μg/mL) | X (X = MPC@4 ≤ 5 μg/mL) | X (X = MPC@4 ≤ 5 μg/mL) | Z (Z = MPC@4 > 20 μg/mL) | X (X = MPC@4 ≤ 5 μg/mL) | X (X = Ki ≤ 0.1 μM) | X (X = Ki ≤ 0.1 μM) | X (X = Ki ≤ 0.1 μM) | < 100 nM |  |  | X (X = MPC@4 ≤ 5 μg/mL) | X (X = MPC@1 ≤ 5 μg/mL) | X (X = MPC@4 ≤ 5 μg/mL) | X (X = MPC@4 ≤ 5 μg/mL) | X (X = MPC@4 ≤ 5 μg/mL) | X (X = MPC@1 ≤ 5 μg/mL) | X (X = MPC@1 ≤ 5 μg/mL) | < 100 nM | X (X = Ki ≤ 0.1 μM)
